Measured values published in US12662469B2 (SIRONAX LTD, priority 2018, dated 2026).

Tested on: Cell Necrosis
Experiment: Cell necrosis assay / cell viability assay (necrosis inhibitor activity)
Format: cell-based
Conditions: not given

Row | Compound | EC50
1 | O=C(N1CC(Oc2ccc3ccccc3c2)C1)N1N=CC[C@H]1c1cc(F)cc(F)c1 [Compound 203, (S)(5-(3,5-difluorophenyl)-4,5-dihydro-1H-pyrazol-1-yl)(3-(naphthalen-2-yloxy)azetidin-1-yl)methanone] | 1 to 1000 nM
2 | CN(C)CCC1Oc2cc(F)c(OC3CN(C(=O)N4N=CC[C@H]4c4cc(F)cc(F)c4)C3)cc2NC1=O (stereo partly drawn) [Compound 249, 6-((1-((S)-5-(3,5-difluorophenyl)-4,5-dihydro-1H-pyrazole-1-carbonyl)azetidin-3-yl)oxy)-2-(2-(dimethylamino)ethyl)-7-fluoro-2H-benzo[b][1,4]oxazin-3(4H)-one] | 1 to 1000 nM

Same assay, conditions: necrosis inhibitor activity; EC data for 14-191 extrapolated; read-out: EC50

Row | Compound | EC50
3 | O=C(N1CC(Cc2ccc(Cl)cc2)C1)N1N=CCC1c1ccccc1 (stereo not shown) [Compound 49, (3-(4-chlorobenzyl)azetidin-1-yl)(5-phenyl-4,5-dihydro-1H-pyrazol-1-yl)methanone] | 1 to 1000 nM
4 | O=C(N1CC(Oc2ccc(Cl)cc2)C1)N1N=CCC1c1ccccc1 (stereo not shown) [Compound 65, (3-(4-chlorophenoxy)azetidin-1-yl)(5-phenyl-4,5-dihydro-1H-pyrazol-1-yl)methanone] | 1 to 1000 nM
5 | O=C1NCc2cc(OC3CN(C(=O)N4N=CCC4c4cc(F)cc(F)c4)C3)ccc21 (stereo not shown) [Compound 167] | 1 to 1000 nM
6 | O=C(N1CC(C(F)(F)c2ccc(F)cc2F)C1)N1N=CCC1c1cc(F)cc(F)c1 (stereo not shown) [Compound 135, (5-(3,5-difluorophenyl)-4,5-dihydro-1H-pyrazol-1-yl)(3-((2,4-difluorophenyl)difluoromethyl)azetidin-1-yl)methanone] | 1 to 1000 nM
7 | Cc1cnc(N2CCN(C(=O)N3N=CCC3c3ccccc3)CC2)s1 (stereo not shown) [Compound 106, (4-(5-methylthiazol-2-yl)piperazin-1-yl)(5-phenyl-4,5-dihydro-1H-pyrazol-1-yl)methanone] | 1000 to 10000 nM
8 | O=C(N1CC(Cc2ccc(F)cc2F)C1)N1N=CCC1c1cc(F)cc(F)c1 (stereo not shown) [Compound 54, (3-(2,4-difluorobenzyl)azetidin-1-yl)(5-(3,5-difluorophenyl)-4,5-dihydro-1H-pyrazol-1-yl)methanone] | 1 to 1000 nM
9 | O=C(N1CCC(Cc2ccccc2)CC1)N1N=CCC1c1ccccc1 (stereo not shown) [Compound 18, (4-benzylpiperidin-1-yl)(5-phenyl-4,5-dihydro-1H-pyrazol-1-yl)methanone] | 1 to 1000 nM
10 | O=C(N1CC(Oc2ccc(F)cc2F)C1)N1N=CC[C@H]1c1cc(F)cc(F)c1 [Compound 142] | 1 to 1000 nM
11 | O=C(N1CC(Oc2ccc(F)cc2Cl)C1)N1N=CCC1c1ccccc1 (stereo not shown) [Compound 67, (3-(2-chloro-4-fluorophenoxy)azetidin-1-yl)(5-phenyl-4,5-dihydro-1H-pyrazol-1-yl)methanone] | 1 to 1000 nM
12 | O=C(N1CC(Oc2ccc3ccc(=O)[nH]c3c2)C1)N1N=CCC1c1cc(F)cc(F)c1 (stereo not shown) [Compound 181] | 1 to 1000 nM
13 | O=C(N1CCN(c2cncnc2)CC1)N1N=CCC1c1ccccc1 (stereo not shown) [Compound 99, (5-phenyl-4,5-dihydro-1H-pyrazol-1-yl)(4-(pyrimidin-5-yl)piperazin-1-yl)methanone] | 1000 to 10000 nM
14 | O=C(N1CC(Oc2ccc3cc[nH]c3c2)C1)N1N=CCC1c1cc(F)cc(F)c1 (stereo not shown) [Compound 177] | 1 to 1000 nM

Same assay, conditions: necrosis inhibitor activity; compounds outside 14-191; read-out: EC50

Row | Compound | EC50
15 | O=C(N1CCN(c2ncc(F)c(OCCN3CCOCC3)n2)CC1)N1N=CC[C@H]1c1cc(F)cc(F)c1 [Compound 287, (S)-(5-(3,5-difluorophenyl)-4,5-dihydro-H-pyrazol-1-yl)(4-(5-fluoro-4-(2-morpholinoethoxy)pyrimidin-2-yl)piperazin-1-yl)methanone] | 1 to 1000 nM
16 | N#Cc1ccc(F)c(O[C@@H]2CCN(C(=O)N3N=CC[C@H]3c3cc(F)cc(F)c3)C2)c1 [Compound 341, 3-(((R)-1-((S)-5-(3,5-difluorophenyl)-4,5-dihydro-1H-pyrazole-1-carbonyl)pyrrolidin-3-yl)oxy)-4-fluorobenzonitrile] | 1 to 1000 nM
17 | O=C1COc2cc(F)c(O[C@@H]3CCN(C(=O)N4N=CC[C@H]4c4cc(F)cc(F)c4)C3)cc2N1 [Compound 196] | 1 to 1000 nM
18 | N#Cc1cccc([C@@H]2CC=NN2C(=O)N2CC(=Cc3cc4c(cc3F)CC(=O)N4)C2)c1 [Compound 373, (S)-3-(1-(3-((5-fluoro-2-oxoindolin-6-yl)methylene)azetidine-1-carbonyl)-4,5-dihydro-1H-pyrazol-5-yl)benzonitrile] | 1 to 1000 nM
19 | CNc1ncc(F)c(OC2CN(C(=O)N3N=CC[C@H]3c3cc(F)cc(F)c3)C2)n1 [Compound 268, (S)-(5-(3,5-difluorophenyl)-4,5-dihydro-1H-pyrazol-1-yl)(3-((5-fluoro-2-(methylamino)pyrimidin-4-yl)oxy)azetidin-1-yl)methanone] | 1 to 1000 nM
20 | O=C(N1CC(=Cc2ccc(Cl)cc2F)C1)N1N=CC[C@H]1c1cc(F)cc(F)c1 [Compound 313] | 1 to 1000 nM
21 | O=C(N1CC2(CCC2)C1)N1N=CCC1c1ccccc1 (stereo not shown) [Compound 3, (5-phenyl-4,5-dihydro-1H-pyrazol-1-yl)(2-azaspiro[3.3]heptan-2-yl)methanone] | 1 to 1000 nM
22 | CC(C)CC(=O)Nc1nc(N2CCN(C(=O)N3N=CC[C@H]3c3cc(F)cc(F)c3)CC2)ncc1F [Compound 291, (S)—N-(2-(4-(5-(3,5-difluorophenyl)-4,5-dihydro-1H-pyrazole-1-carbonyl)piperazin-1-yl)-5-fluoropyrimidin-4-yl)-3-methylbutanamide] | 1 to 1000 nM
23 | CC1Oc2cc(F)c(OC3CN(C(=O)N4N=CC[C@H]4c4ccccc4)C3)cc2NC1=O (stereo partly drawn) [Compound 352, 7-fluoro-2-methyl-6-((1-((S)-5-phenyl-4,5-dihydro-1H-pyrazole-1-carbonyl)azetidin-3-yl)oxy)-2H-benzo[b][1,4]oxazin-3(4H)-one] | 1 to 1000 nM
24 | O=C(N1CC[C@@H](Oc2ccnc3ccnn23)C1)N1N=CC[C@H]1c1cc(F)cc(F)c1 [Compound 242, ((S)-5-(3,5-difluorophenyl)-4,5-dihydro-1H-pyrazol-1-yl)((R)-3-(pyrazolo[1,5-a]pyrimidin-7-yloxy)pyrrolidin-1-yl)methanone] | 1 to 1000 nM
25 | O=C(Nc1nc(N2CCN(C(=O)N3N=CC[C@H]3c3cc(F)cc(F)c3)CC2)ncc1F)C1CCOCC1 [Compound 293, (S)—N-(2-(4-(5-(3,5-difluorophenyl)-4,5-dihydro-1H-pyrazole-1-carbonyl)piperazin-1-yl)-5-fluoropyrimidin-4-yl)tetrahydro-2H-pyran-4-carboxamide] | 1 to 1000 nM
26 | N#Cc1ccnc(OC2CN(C(=O)N3N=CC[C@H]3c3cc(F)cc(F)c3)C2)n1 [Compound 264, (S)-2-((1-(5-(3,5-difluorophenyl)-4,5-dihydro-1H-pyrazole-1-carbonyl)azetidin-3-yd)oxy)pyrimidine-4-carbonitrile] | 1 to 1000 nM
27 | O=C(N1CC(=Cc2cc3[nH]nc(Cl)c3cc2F)C1)N1N=CC[C@H]1c1cc(F)cc(F)c1 [Compound 285, (S)-(3-((3-chloro-5-fluoro-1H-indazol-6-yl)methylene)azetidin-1-yl)(5-(3,5-difluorophenyl)-4,5-dihydro-1H-pyrazol-1-yl)methanone] | 1 to 1000 nM
28 | O=C1COc2cc(F)c(OC3CN(C(=O)N4N=CC[C@H]4c4cc(F)cc(F)c4)C3)cc2N1 [Compound 193, (S)-6-((1-(5-(3,5-difluorophenyl)-4,5-dihydro-1H-pyrazole-1-carbonyl)azetidin-3-yl)oxy)-7-fluoro-2H-benzo[b][1,4]oxazin-3(4H)-one] | 1 to 1000 nM
29 | CNc1nc(N2CCN(C(=O)N3N=CC[C@H]3c3cc(F)cc(F)c3)CC2)ncc1F [Compound 303, (S)-(5-(3,5-difluorophenyl)-4,5-dihydro-1H-pyrazol-1-yl)(4-(5-fluoro-4-(methylamino)pyrimidin-2-yl)piperazin-1-yl)methanone] | 1 to 1000 nM
30 | O=C(Nc1nc(N2CCN(C(=O)N3N=CC[C@H]3c3cc(F)cc(F)c3)CC2)ncc1F)C1CC1 [Compound 226, (S)—N-(2-(4-(5-(3,5-difluorophenyl)-4,5-dihydro-1H-pyrazole-1-carbonyl)piperazin-1-yl)-5-fluoropyrimidin-4-yl)cyclopropanecarboxamide] | 1 to 1000 nM
31 | O=C(N1CC(Oc2cc3[nH]nc(F)c3cc2F)C1)N1N=CCC1c1cncc(F)c1 (stereo not shown) [Compound 378, (3-((3,5-difluoro-1H-indazol-6-yl)oxy)azetidin-1-yl)(5-(5-fluoropyridin-3-yl)-4,5-dihydro-1H-pyrazol-1-yl)methanone] | 1 to 1000 nM
32 | O=C(N1CCCCC1)N1N=CCC1c1ccccc1 (stereo not shown) [Compound 7, (5-phenyl-4,5-dihydro-1H-pyrazol-1-yl)(piperidin-1-yl)methanone] | 1 to 1000 nM
33 | Nc1ccn(CC2CN(C(=O)N3N=CC[C@H]3c3cc(F)cc(F)c3)C2)c1 [Compound 298, (S)-(3-((3-amino-H-pyrrol-1-yl)methyl)azetidin-1-yl)(5-(3,5-difluorophenyl)-4,5-dihydro-1H-pyrazol-1-yl)methanone] | 1 to 1000 nM
34 | CC1Oc2ccc(OC3CN(C(=O)N4N=CC[C@H]4c4cc(F)cc(C#N)c4)C3)cc2NC1=O (stereo partly drawn) [Compound 354, 3-fluoro-5-((5S)-1-(3-((2-methyl-3-oxo-3,4-dihydro-2H-benzo[b][1,4]oxazin-6-yl)oxy)azetidine-1-carbonyl)-4,5-dihydro-1H-pyrazol-5-yl)benzonitrile] | 1 to 1000 nM
35 | NC(=O)c1cnc(OC2CN(C(=O)N3N=CC[C@H]3c3cc(F)cc(F)c3)C2)s1 [Compound 280, (S)-2-((1-(5-(3,5-difluorophenyl)-4,5-dihydro-1H-pyrazole-1-carbonyl)azetidin-3-yl)oxy)thiazole-5-carboxamide] | 1 to 1000 nM
36 | NC(=O)c1cnc2ccc(O[C@@H]3CCN(C(=O)N4N=CC[C@H]4c4cc(F)cc(F)c4)C3)nn12 [Compound 241, 6-(((R)-1-((S)-5-(3,5-difluorophenyl)-4,5-dihydro-1H-pyrazole-1-carbonyl)pyrrolidin-3-yl)oxy)imidazo[1,2-b]pyridazine-3-carboxamide] | 1 to 1000 nM
37 | O=C(N1CC(=Cc2ccc(F)cc2Cl)C1)N1N=CC[C@H]1c1cc(F)cc(F)c1 [Compound 312, (S)-(3-(2-chloro-4-fluorobenzylidene)azetidin-1-yl)(5-(3,5-difluorophenyl)-4,5-dihydro-1H-pyrazol-1-yl)methanone] | 1 to 1000 nM
